Series [1] is described as follows: pH of the acidic solution of the substance used by itself. Type of series: physicochemical. The conditions noted are these: acetylsalicyclic acid by itself, unbuffered.
In the next series the test system is skin. In words: Application to skin, detrimental effects. To be noted: used by itself, applied to skin; hours and/or days following application. The class given is in vivo. The text has this:
The low pKa results in an acidic solution having a pH of about 1.9, which damages skin and results in skin peeling in the hours and/or days following application to skin.

For `CC(=O)Oc1ccccc1C(=O)O` [acetylsalicyclic acid], the “pH of resulting acidic solution” value in series [1] was “about 1.9”. For the same molecule, in the series with skin, the effect on skin entry was “acts as a skin peeler”.

Values taken from patent US20110201578A1, “COMPOSITION AND METHODS FOR THE TREATMENT OF PSEUDOFOLLICULITIS BARBAE AND SKIN IRRITATION” (priority 2010, published 2011).
